Entries after “also recorded” stand apart in the source; their conditions may differ.
What was measured:
[1] = test system: SMAC cells; experiment: Survival of SMAC cells after hypothermia (MTS assay / cell counting); type: cell-based, rat; details: SMAC cells, 24 h at 3° C., substance added 15 min before hypothermia
Experimental: Cell lines used included NRK (normal rat kidney cells), DDT-1 (hamster ductus deferens muscle cells) and A7R5 (rat vascular smooth muscle cells) cultured in DMEM (Gibco, 41966, UK) and SMAC (rat smooth muscle aortic cells) and THMC (transformed human mesangial cell) cultured in DMEM/F12 (Gibco, E12-719F). All media were supplied with 10% (vol/vol) fetal calf serum and 1% penicillin-streptomycin and cultured at 37° C. in 5% CO2 in 25 cm^2 or 75 cm^2 flasks. For hypothermia experiments, cells were plated in 6 or 96 wells plates and grown to confluence. Thereupon, cells were placed at 3° C. for up to 24 hours. Cell survival was measured by counting of trypan blue stained cells or MTS assay, which measures the number of viable cells. For the latter, 20 μl of MTS solution was added to each well and cells were subsequently placed in the incubator at 37° C. in 5% CO2 for 3 hr before assessing the cell survival by measuring absorption using a microplate reader at 490 nm.
MTS assay was performed to investigate cell survival after blocking serotonin transporter and hypothermic treatment.

[2] = test system: SMAC cells; experiment: Caspase 3/7 assay in hypothermic SMAC cells; type: cell-based, rat; details: serotonin 5 nmol/L
[3] = test system: SMAC cells; experiment: H2S content of SMAC cell homogenates (methylene blue method); type: cell-based, rat; details: hypothermic SMAC cells 24 h, 3° C., pretreatment 15 min, 1.3 μM
Experimental: Methylene blue method for H2S detection was applied to quantitatively measure the H2S production. Cells were washed with PBS, scraped and centrifuged for 60 sec at 1000 rpm. After removal of the supernatant, zinc acetate 1% in water (200 μl) was added to the cell sediments and the cells were disrupted by small glass beads and vortexed for 20 seconds. Diamine-ferric solution was prepared by mixing 100 μl of a 400 mg N,N-dimethyl-p-phenylenediamine dihydrochloride dissolved in 10 ml 6M HCl and 100 μl of 600 mg ferric chloride in 10 ml 6M HCl. Two hundred μl of this mixture was added to the cell suspension and after an incubation time of 30 min at 37° C. and centrifugation, the amount of methylene blue formed in the supernatant was measured at a wavelength of 670 nm. To measure H2S content of supernatant, the same procedure was repeated for the cell free medium of cells incubated at both 37° C. and 3° C. Blanks were made following the same procedure without cells or using fresh medium. The concentration of H2S was calculated by extrapolation using a standard curve obtained from different concentrations of Methylene blue and spectrophotometric measurement at a wavelength of 670 nm. The amount of H2S present was calculated on the basis that every mole of methylene blue formed in this reaction contains 32 g (1 mole) of captured sulfur.

[4] = test system: Cystathionine-β-synthase (CBS); experiment: CBS expression in SMAC cells (western blot); type: cell-based, rat; details: serotonin 1.3 μM
Experimental: To investigate the potential of serotonin in upregulating CBS expression in cells, SMAC cells were cultured in a 6 well plate one day before serotonin treatment. After reaching confluence, cells were incubated with 1.3 μM serotonin in SMAC cell complete medium. Control wells only contained the medium. At every time point (5, 10, min), cells were washed with PBS, lysed using RIPA buffer and western blotted to study the change in CBS expression level.
To investigate the role of Cystathione beta-synthase activity in the protective effect of serotonin the expression of CBS was reduced by applying a predesigned siRNA (sc-60336, Santa Cruz, USA) and compared to a silencer negative control (Ambion, AM4644, Huntingdon, UK). DDT-1 and SMAC cells at 60-80% confluence were seeded in 96 or 6 well plates in antibiotic-free normal growth medium supplemented with FCS. […] The protein concentration was measured by Bradford assay in all the samples. […] Proteins were transferred to a nitrocellulose membrane and detected by West Pico Chemiluminescent Substrate (supersignal), photographed and analyzed with genetool software (version 3.08, SynGene, England). […]

[5] = test system: CBS enzyme isolated from DDT-1 cells; experiment: Activity of isolated CBS enzyme (H2S production); type: biochemical, hamster; details: both at 37° C. and 3° C.
Experimental: To examine the potential of serotonin to act as a cofactor or allosteric activator of CBS, the enzyme was isolated from DDT-1 cells. In brief, DDT-1 cells were lyzed by a non-denaturing buffer. CBS antibody (1 μg/ml) was diluted in coating solution and 100 μl of it was added to each well of a microplate. The plates were left at 4° C. over night. The wells were washed with PBS three times for 2 min and 10 μg/ml of the protein was added to each well and the microplate was left at 4° C. for another 24 hr and later washed three times with PBS. The substrates cysteine and homocysteine at the concentration of 10 μmol each were mixed and 100 μl was added to each well in the absence or presence of PLP (pyridoxal-5-phosphate) or serotonin (30 nmol) in PBS.

## NCCc1c[nH]c2ccc(O)cc12 [serotonin, Serotonin]
[1]
  protection against hypothermic cell death / reduction in number of cells: concentration-dependently prevented; also recorded: Protection of hypothermic cell death
[2]
  apoptosis (caspase 3/7) in hypothermic SMAC cells: completely and dose dependently attenuated
[3]
  H2S content: 1.4±0.2 μmoles per 10̂6 cells
[3]; vs untreated
  increase of H2S content: 8 fold
[4]; SMAC cells, 37° C., 15 min
  induction of CBS expression: 4 fold
[4]
  CBS expression in 37° C. SMAC cells: upregulates CBS expression
[5]
  activity of isolated CBS: increase the activity

From patent publication US20130203830A1, “Compounds for Prevention of Cell Injury” (SULFATEQ B.V., priority 2010, published 2013)
